From patent US20150274719A1, “AMINO-SUBSTITUTED IMIDAZO[1,2-A]PYRIDINECARBOXAMIDES AND THEIR USE” (BAYER PHARMA AKTIENGESELLSCHAFT, priority 2012, published 2015)

These molecules were tested against T1, recombinant guanylate cyclase reporter cell line (Rattus norvegicus, UniProt P19686+P20595) (assay: Action on recombinant guanylate cyclase reporter cell line). Details: in some cases mean values from individual determinations.
T1 construct: expressed in transfected cells; host or cells: recombinant reporter cell line
T1 sequence (P19686 1-690): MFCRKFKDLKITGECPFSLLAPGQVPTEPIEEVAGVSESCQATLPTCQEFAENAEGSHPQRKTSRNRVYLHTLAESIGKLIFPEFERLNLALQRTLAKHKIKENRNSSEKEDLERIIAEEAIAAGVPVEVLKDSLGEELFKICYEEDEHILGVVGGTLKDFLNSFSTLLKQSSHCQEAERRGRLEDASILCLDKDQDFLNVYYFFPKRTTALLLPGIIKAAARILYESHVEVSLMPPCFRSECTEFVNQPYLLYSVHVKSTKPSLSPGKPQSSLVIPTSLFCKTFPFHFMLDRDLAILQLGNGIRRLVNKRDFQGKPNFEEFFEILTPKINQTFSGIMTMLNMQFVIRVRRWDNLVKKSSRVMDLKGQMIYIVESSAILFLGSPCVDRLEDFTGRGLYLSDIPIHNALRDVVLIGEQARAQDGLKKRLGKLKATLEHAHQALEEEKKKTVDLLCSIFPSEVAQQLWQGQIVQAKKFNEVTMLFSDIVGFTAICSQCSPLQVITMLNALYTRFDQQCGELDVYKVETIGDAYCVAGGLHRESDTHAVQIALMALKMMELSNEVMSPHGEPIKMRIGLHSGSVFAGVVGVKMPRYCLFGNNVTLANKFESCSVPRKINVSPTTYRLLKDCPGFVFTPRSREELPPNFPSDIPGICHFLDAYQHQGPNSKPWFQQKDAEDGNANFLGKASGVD
T1 sequence (P20595 1-619): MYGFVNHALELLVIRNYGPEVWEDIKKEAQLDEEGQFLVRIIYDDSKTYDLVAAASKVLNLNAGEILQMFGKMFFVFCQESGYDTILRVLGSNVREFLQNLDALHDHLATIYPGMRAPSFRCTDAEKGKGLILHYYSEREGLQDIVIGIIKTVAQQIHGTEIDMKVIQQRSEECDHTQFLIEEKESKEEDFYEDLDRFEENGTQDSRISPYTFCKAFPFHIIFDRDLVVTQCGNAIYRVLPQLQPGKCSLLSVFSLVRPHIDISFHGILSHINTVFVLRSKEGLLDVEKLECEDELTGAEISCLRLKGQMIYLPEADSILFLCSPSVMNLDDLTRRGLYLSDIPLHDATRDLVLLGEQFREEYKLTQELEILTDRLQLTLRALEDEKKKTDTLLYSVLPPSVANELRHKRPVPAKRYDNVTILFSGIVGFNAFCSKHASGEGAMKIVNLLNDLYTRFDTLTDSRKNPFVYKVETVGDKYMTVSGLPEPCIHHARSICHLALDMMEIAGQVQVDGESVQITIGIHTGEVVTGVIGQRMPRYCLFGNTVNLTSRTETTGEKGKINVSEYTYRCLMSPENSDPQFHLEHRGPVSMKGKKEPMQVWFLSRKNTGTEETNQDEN
Assay type: cell-based
Description: B-2. Action on Recombinant Guanylate Cyclase Reporter Cell Line
The cellular action of the compounds according to the invention is determined on a recombinant guanylate cyclase reporter cell line, as described in F. Wunder et al., Anal. Biochem. 339, 104-112 (2005).
Representative MEC values (MEC=minimal effective concentration) for the compounds according to the invention are shown in the following table (in some cases as mean values obtained from individual determinations): […]

Row | Structure (SMILES) | MEC (minimal effective concentration) [µM]
1 | Cc1cc(OCc2c(F)cccc2F)c2nc(C)c(C(=O)NC3CNc4ccccc4C3)n2c1 (racemic) [Example 76, rac-8-[(2,6-difluorobenzyl)oxy]-2,6-dimethyl-N-(1,2,3,4-tetrahydroquinolin-3-yl)imidazo[1,2-a]-pyridine-3-carboxamide] | 0.30
2 | Cc1cc(OCc2c(F)cccc2F)c2nc(C)c(C(=O)NC(C)C3CCN(C)CC3)n2c1 (racemic) [Example 77, rac-8-[(2,6-difluorobenzyl)oxy]-2,6-dimethyl-N-[1-(1-methylpiperidin-4-yl)ethyl]imidazo[1,2-a]-pyridine-3-carboxamide] | 1.00
3 | Cc1nc2c(OCc3c(F)cccc3F)cc(Cl)cn2c1C(=O)NC(C)C1CCN(C)CC1 (racemic) [Example 78, rac-6-chloro-8-[(2,6-difluorobenzyl)oxy]-2-methyl-N-[1-(1-methylpiperidin-4-yl)ethyl]-imidazo[1,2-a]pyridine-3-carboxamide] | 1.00
4 | Cc1nc2c(OCc3c(F)cccc3F)cccn2c1C(=O)NCC1NCCc2ccccc21 (racemic) [Example 80, rac-8-[(2,6-difluorobenzyl)oxy]-2-methyl-N-(1,2,3,4-tetrahydroisoquinolin-1-ylmethyl)-imidazo[1,2-a]pyridine-3-carboxamide] | 1.00
5 | Cc1nc2c(OCc3c(F)cccc3F)cccn2c1C(=O)NC1CCCN(C)C1 (racemic) [Example 84, rac-8-[(2,6-difluorobenzyl)oxy]-2-methyl-N-(1-methylpiperidin-3-yl)imidazo[1,2-a]-pyridine-3-carboxamide] | 1.00
6 | Cc1nc2c(OCc3c(F)cccc3F)cccn2c1C(=O)NC1CCN(Cc2ccccc2)C1 (racemic) [Example 85, rac-N-(1-benzylpyrrolidin-3-yl)-8-[(2,6-difluoro-benzyl)oxy]-2-methylimidazo[1,2-a]-pyridine-3-carboxamide] | 1.00
7 | Cc1nc2c(OCc3c(F)cccc3F)cc(Cl)cn2c1C(=O)NCC1CCCCN1 (racemic) [Example 118, rac-6-chloro-8-[(2,6-difluorobenzyl)oxy]-2-methyl-N-(piperidin-2-ylmethyl)imidazo[1,2-a]-pyridine-3-carboxamide] | 1.00
8 | Cc1nc2c(OCc3c(F)cccc3F)cccn2c1C(=O)NC12CNCCC1C2 (racemic) [Example 125, rac-N-(3-Azabicyclo[4.1.0]hept-1-yl)-8-[(2,6-difluorobenzyl)oxy]-2-methylimidazo[1,2-a]-pyridine-3-carboxamide] | 1.00
9 | Cc1nc2c(OCc3c(F)cccc3F)cccn2c1C(=O)NCC(C)N1CCOCC1 (racemic) [Example 132, rac-8-[(2,6-difluorobenzyl)oxy]-2-methyl-N-[2-(morpholin-4-yl)propyl]imidazo[1,2-a]pyridine-3-carboxamide] | 1.00
10 | Cc1nc2c(OCc3c(F)cccc3F)cccn2c1C(=O)NC(CN1CCOCC1)c1ccccc1 (racemic) [Example 134, rac-8-[(2,6-difluorobenzyl)oxy]-2-methyl-N-[2-(morpholin-4-yl)-1-phenylethyl]imidazo[1,2-a]-pyridine-3-carboxamide] | 3.00
11 | Cc1cc(OCc2c(F)cccc2F)c2nc(C)c(C(=O)NCCNC(C)C)n2c1 (racemic) [Example 135, rac-8-[(2,6-difluorobenzyl)oxy]-N-[2-(isopropylamino)ethyl]-2,6-dimethylimidazo[1,2-a]pyridine-3-carboxamide] | 1.00
12 | Cc1cc(OCc2c(F)cccc2F)c2nc(C)c(C(=O)NCC(C)N3CCOCC3)n2c1 (racemic) [Example 138, rac-8-[(2,6-difluorobenzyl)oxy]-2,6-dimethyl-N-[2-(morpholin-4-yl)propyl]imidazo[1,2-a]-pyridine-3-carboxamide] | 0.30
13 | Cc1nc2c(OCc3c(F)cccc3F)cccn2c1C(=O)NCC(C(C)C)N(C)C (racemic) [Example 142, rac-8-[(2,6-difluorobenzyl)oxy]-N-[2-(dimethyl-amino)-3-methylbutyl]-2-methylimidazo[1,2-a]-pyridine-3-carboxamide] | 1.00
14 | Cc1nc2c(OCc3c(F)cccc3F)cc(Cl)cn2c1C(=O)NCC(N)CC(F)(F)F (racemic) [Example 147, rac-N-(2-amino-4,4,4-trifluorobutyl)-6-chloro-8-[(2,6-difluorobenzyl)oxy]-2-methylimidazo[1,2-a]pyridine-3-carboxamide] | 0.30

Second part, the molecule after the results:

Row | MEC (minimal effective concentration) [µM] | Structure (SMILES)
15 | 0.30 | CCC(C)(N)CNC(=O)c1c(C)nc2c(OCc3c(F)cccc3F)cc(Cl)cn12 (racemic) [Example 157, rac-N-(2-amino-2-methylbutyl)-6-chloro-8-[(2,6-difluorobenzyl)oxy]-2-methylimidazo[1,2-a]-pyridine-3-carboxamide]
16 | 0.30 | COCC(C)(N)CNC(=O)c1c(C)nc2c(OCc3c(F)cccc3F)cc(Cl)cn12 (racemic) [Example 159, rac-N-(2-amino-3-methoxy-2-methylpropyl)-6-chloro-8-[(2,6-difluorobenzyl)oxy]-2-methylimidazo[1,2-a]pyridine-3-carboxamide]
17 | 0.30 | COCC(C)(N)CNC(=O)c1c(C)nc2c(OCc3c(F)cccc3F)cc(C)cn12 (racemic) [Example 166, rac-N-(2-amino-3-methoxy-2-methylpropyl)-8-[(2,6-difluorobenzyl)oxy]-2,6-dimethylimidazo[1,2-a]pyridine-3-carboxamide]
18 | 0.10 | Cc1nc2c(OCc3c(F)cccc3F)cccn2c1C(=O)NCC(C)(N)CC(C)C (racemic) [Example 202, rac-N-(2-Amino-2,4-dimethylpentyl)-8-[(2,6-difluorobenzyl)oxy]-2-methylimidazo[1,2-a]pyridine-3-carboxamide]
19 | 0.30 | Cc1nc2c(OCc3c(F)cccc3F)cccn2c1C(=O)NCC(N)COC(C)C (racemic) [Example 205, rac-N-(2-Amino-3-isopropoxypropyl)-8-[(2,6-difluorobenzyl)oxy]-2-methylimidazo[1,2-a]-pyridine-3-carboxamide]
20 | 0.30 | Cc1cc(OCc2c(F)cccc2F)c2nc(C)c(C(=O)NCC(N)COC(C)C)n2c1 (racemic) [Example 206, rac-N-(2-Amino-3-isopropoxypropyl)-8-[(2,6-difluorobenzyl)oxy]-2,6-dimethylimidazo[1,2-a]-pyridine-3-carboxamide]
21 | 1.00 | Cc1nc2c(OCc3c(F)cccc3F)cccn2c1C(=O)NCC(N)C(F)(F)F (racemic) [Example 207, rac-N-(2-Amino-3,3,3-trifluoropropyl)-8-[(2,6-difluorobenzyl)oxy]-2-methylimidazo[1,2-a]-pyridine-3-carboxamide]
22 | 1.00 | COCC(C)(N)CNC(=O)c1c(C)nc2c(OCc3c(F)cccc3F)cccn12 (racemic) [Example 213, rac-N-(2-Amino-3-methoxy-2-methylpropyl)-8-[(2,6-difluorobenzyl)oxy]-2-methylimidazo[1,2-a]-pyridine-3-carboxamide]
23 | 1.00 | Cc1nc2c(OCc3c(F)cccc3F)cc(Cl)cn2c1C(=O)NCC(N)COC(C)C (racemic) [Example 217, rac-N-(2-Amino-3-isopropoxypropyl)-6-chloro-8-[(2,6-difluorobenzyl)oxy]-2-methylimidazo[1,2-a]pyridine-3-carboxamide]
24 | 0.10 | Cc1cc(OCc2c(F)cccc2F)c2nc(C)c(C(=O)NCC(C)(N)CC(C)C)n2c1 (racemic) [Example 218, rac-N-(2-Amino-2,4-dimethylpentyl)-8-[(2,6-difluorobenzyl)oxy]-2,6-dimethylimidazo[1,2-a]-pyridine-3-carboxamide]
